Tested on: T-47D spheroids with HUVEC/MSC, viability
Assay: Anticancer human tumor T-47D cell line growth inhibition [PI3K];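 further: spheroids exposed to agents for seven days before reading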;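 on viability, T/C: percent of DMSO vehicle control luminescence so 100% = untreated growth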
Details: for IC50: curve of first compound; for viability, T/C: stronger effect = lower value
Method in brief: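 Multi-cell spheroids combine tumor cells with HUVEC and human MSCs, treated with targeted agents alone or with inavolisib, alpelisib, duvelisib or copanlisib. Concentrations fall in half-log steps from at or near clinical Cmax, or from 10 microM where Cmax is unknown; viability read-out.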

[1] = second compound 0.00316 µM, first compound 0.000316 µM
[2] = second compound 0.00316 µM, first compound 0.001 µM
[3] = second compound 0.00316 µM, first compound 0.00316 µM
[4] = second compound 0.00316 µM, first compound 0.01 µM
[5] = second compound 0.00316 µM, first compound 0.0316 µM
[6] = second compound 0.00316 µM, first compound 0.1 µM
[7] = second compound 0.01 µM, first compound 0.000316 µM
[8] = second compound 0.01 µM, first compound 0.001 µM
[9] = second compound 0.01 µM, first compound 0.00316 µM
[10] = second compound 0.01 µM, first compound 0.01 µM
[11] = second compound 0.01 µM, first compound 0.0316 µM
[12] = second compound 0.01 µM, first compound 0.1 µM
[13] = second compound 0.0316 µM, first compound 0.000316 µM
[14] = second compound 0.0316 µM, first compound 0.001 µM
[15] = second compound 0.0316 µM, first compound 0.00316 µM
[16] = second compound 0.0316 µM, first compound 0.01 µM
[17] = second compound 0.0316 µM, first compound 0.0316 µM
[18] = second compound 0.0316 µM, first compound 0.1 µM
[19] = second compound 0.1 µM, first compound 0.000316 µM
[20] = second compound 0.1 µM, first compound 0.001 µM
[21] = second compound 0.1 µM, first compound 0.00316 µM
[22] = second compound 0.1 µM, first compound 0.01 µM
[23] = second compound 0.1 µM, first compound 0.0316 µM
[24] = second compound 0.1 µM, first compound 0.1 µM
[25] = second compound 0.316 µM, first compound 0.000316 µM
[26] = second compound 0.316 µM, first compound 0.001 µM
[27] = second compound 0.316 µM, first compound 0.00316 µM
[28] = second compound 0.316 µM, first compound 0.01 µM
[29] = second compound 0.316 µM, first compound 0.0316 µM
[30] = second compound 0.316 µM, first compound 0.1 µM
[31] = second compound 1 µM, first compound 0.000316 µM
[32] = second compound 1 µM, first compound 0.001 µM
[33] = second compound 1 µM, first compound 0.00316 µM
[34] = second compound 1 µM, first compound 0.01 µM
[35] = second compound 1 µM, first compound 0.0316 µM
[36] = second compound 1 µM, first compound 0.1 µM

CC(C)n1nc(-c2ccc3oc(N)nc3c2)c2c(N)ncnc21 + COc1c(OCCCN2CCOCC2)ccc2c3n(c(=NC(=O)c4cnc(N)nc4)nc12)CCN3
IC50 (second compound 0.00316 µM): 56.6 nM | IC50 (second compound 0.01 µM): 39.1 nM | IC50 (second compound 0.0316 µM): 3.78 nM | IC50 (second compound 0.1 µM): < 0.316 nM | IC50 (second compound 0.316 µM): < 0.316 nM | IC50 (second compound 1 µM): < 0.316 nM | viability, T/C [1]: 103% | viability, T/C [2]: 82.3% | viability, T/C [3]: 106% | viability, T/C [4]: 92.5% | viability, T/C [5]: 77.6% | viability, T/C [6]: 23.1% | viability, T/C [7]: 103% | viability, T/C [8]: 78.2% | viability, T/C [9]: 98.5% | viability, T/C [10]: 78.3% | viability, T/C [11]: 57.7% | viability, T/C [12]: 16.7% | viability, T/C [13]: 80.9% | viability, T/C [14]: 58% | viability, T/C [15]: 52.1% | viability, T/C [16]: 39.9% | viability, T/C [17]: 29.8% | viability, T/C [18]: 7.95% | viability, T/C [19]: 46% | viability, T/C [20]: 36.5% | viability, T/C [21]: 31.2% | viability, T/C [22]: 23.6% | viability, T/C [23]: 15.8% | viability, T/C [24]: 2.05% | viability, T/C [25]: 14.4% | viability, T/C [26]: 17.3% | viability, T/C [27]: 12.6% | viability, T/C [28]: 12.3% | viability, T/C [29]: 6.24% | viability, T/C [30]: 0.85% | viability, T/C [31]: 5.77% | viability, T/C [32]: 4.9% | viability, T/C [33]: 6.77% | viability, T/C [34]: 5.07% | viability, T/C [35]: 3.21% | viability, T/C [36]: 1.6%

Cn1nccc1Nc1nccc(-c2ccn(C(CO)c3ccc(Cl)c(F)c3)c(=O)c2)n1 (stereo unspecified) + CC(Nc1ccc2c(c1)OCCn1cc(N3C(=O)OCC3C(F)F)nc1-2)C(N)=O
IC50 (second compound 0.00316 µM): > 10000 nM | IC50 (second compound 0.01 µM): > 10000 nM | IC50 (second compound 0.0316 µM): > 10000 nM | IC50 (second compound 0.1 µM): > 10000 nM | IC50 (second compound 0.316 µM): > 10000 nM | IC50 (second compound 1 µM): > 10000 nM | viability, T/C [5]: 98.6% | viability, T/C [6]: 97.4% | viability, T/C (second compound 0.00316 µM, first compound 0.316 µM): 93.3% | viability, T/C (second compound 0.00316 µM, first compound 1 µM): 96% | viability, T/C (second compound 0.00316 µM, first compound 3.16 µM): 113% | viability, T/C (second compound 0.00316 µM, first compound 10 µM): 109% | viability, T/C [11]: 106% | viability, T/C [12]: 92.8% | viability, T/C (second compound 0.01 µM, first compound 0.316 µM): 104% | viability, T/C (second compound 0.01 µM, first compound 1 µM): 106% | viability, T/C (second compound 0.01 µM, first compound 3.16 µM): 111% | viability, T/C (second compound 0.01 µM, first compound 10 µM): 99.6% | viability, T/C [17]: 86.1% | viability, T/C [18]: 85.2% | viability, T/C (second compound 0.0316 µM, first compound 0.316 µM): 93.2% | viability, T/C (second compound 0.0316 µM, first compound 1 µM): 99.7% | viability, T/C (second compound 0.0316 µM, first compound 3.16 µM): 105% | viability, T/C (second compound 0.0316 µM, first compound 10 µM): 85.7% | viability, T/C [23]: 103% | viability, T/C [24]: 100% | viability, T/C (second compound 0.1 µM, first compound 0.316 µM): 89.4% | viability, T/C (second compound 0.1 µM, first compound 1 µM): 92.9% | viability, T/C (second compound 0.1 µM, first compound 3.16 µM): 87% | viability, T/C (second compound 0.1 µM, first compound 10 µM): 92.3% | viability, T/C [29]: 71.8% | viability, T/C [30]: 71.3% | viability, T/C (second compound 0.316 µM, first compound 0.316 µM): 65.4% | viability, T/C (second compound 0.316 µM, first compound 1 µM): 67% | viability, T/C (second compound 0.316 µM, first compound 3.16 µM): 69.4% | viability, T/C (second compound 0.316 µM, first compound 10 µM): 71.3% | viability, T/C [35]: 65.7% | viability, T/C [36]: 60% | viability, T/C (second compound 1 µM, first compound 0.316 µM): 52% | viability, T/C (second compound 1 µM, first compound 1 µM): 47.4% | viability, T/C (second compound 1 µM, first compound 3.16 µM): 58.1% | viability, T/C (second compound 1 µM, first compound 10 µM): 57.1%

CC(=O)c1c(C)c2cnc(Nc3ccc(N4CCNCC4)cn3)nc2n(C2CCCC2)c1=O + CC(Nc1ccc2c(c1)OCCn1cc(N3C(=O)OCC3C(F)F)nc1-2)C(N)=O
IC50 (second compound 0.00316 µM): > 100 nM | IC50 (second compound 0.01 µM): > 100 nM | IC50 (second compound 0.0316 µM): > 100 nM | IC50 (second compound 0.1 µM): > 100 nM | IC50 (second compound 0.316 µM): > 100 nM | IC50 (second compound 1 µM): < 0.316 nM | viability, T/C [1]: 92.1% | viability, T/C [2]: 90.5% | viability, T/C [3]: 82.9% | viability, T/C [4]: 95.3% | viability, T/C [5]: 64.4% | viability, T/C [6]: 86% | viability, T/C [7]: 83.8% | viability, T/C [8]: 121% | viability, T/C [9]: 71.9% | viability, T/C [10]: 75.3% | viability, T/C [11]: 78.6% | viability, T/C [12]: 69.8% | viability, T/C [13]: 70.1% | viability, T/C [14]: 85.8% | viability, T/C [15]: 76.1% | viability, T/C [16]: 83.6% | viability, T/C [17]: 69.8% | viability, T/C [18]: 67.1% | viability, T/C [19]: 84.7% | viability, T/C [20]: 89.8% | viability, T/C [21]: 76% | viability, T/C [22]: 65.7% | viability, T/C [23]: 77% | viability, T/C [24]: 54.5% | viability, T/C [25]: 59.4% | viability, T/C [26]: 65.9% | viability, T/C [27]: 48.9% | viability, T/C [28]: 56.7% | viability, T/C [29]: 43.4% | viability, T/C [30]: 60.1% | viability, T/C [31]: 39.9% | viability, T/C [32]: 55.6% | viability, T/C [33]: 49.5% | viability, T/C [34]: 41% | viability, T/C [35]: 38.9% | viability, T/C [36]: 32.6%
